Data set [1] relates to CAIX positive SKRC52 cells. The experiment in a line: Ligand internalization analysis by flow cytometry, SKRC52. The data set is classed as cell-based, human. The protocol:
SKRC52 or A549 cells were seeded in 6-well plates in their appropriate culture medium (2 mL) at a density of 1.5×10^5 cells per well and allowed to grow for 24 h under culture conditions. The medium was replaced with medium containing IRDye750 (Licor) labeled probes 1c or 6c (2 mL, 30 nM) and plates incubated for 1, 2 or 4 h under standard culture conditions. After washing with PBS pH 7.4 (2×2 mL), Trypsin-EDTA 0.05% (500 μL, Invitrogen) was added and plates incubated under standard culture conditions for 15 min Medium (500 μL) was added, cells pelleted and resuspended in PBS pH 7.4 containing 1% v/v FCS (150 μL). After incubating for 15 min on ice, cells were labeled for 30 min on ice with rabbit anti human CAIX IgG (1:100, Santa Cruz) in PBS pH 7.4 containing 1% FCS (150 μL), washed with PBS pH 7.4 containing 1% FCS (2×150 μL) and labeled for 30 min on ice with goat anti rabbit IgG Alexa488 conjugate (1:100, Invitrogen) in PBS pH 7.4 containing 1% FCS (150 μL). After washing with PBS pH 7.4 containing 1% FCS (2×150 μL), cells were pelleted and resuspended in PBS pH 7.4 containing 1% v/v FCS and propidium iodide (300 μL, 1 μg mL^−1, Invitrogen) and analyzed on a FACS Canto flow cytometer (BD Bioscience). FlowJo Version 8.7 (Treestar) was used for data analysis and visualization. To inhibit uptake mechanisms, cells were pre-incubated with medium containing 0.2% NaN3 for 1 h and the NaN3 concentration maintained throughout the entire experiment. Alternatively, all steps were performed at 0° C. or an excess of AAZ (100 μM) was added to the culture medium.
For orientation: Flow cytometry measures light scatter and fluorescence of single cells or particles in a stream.

Data set [2] concerns subcutaneous SKRC52 tumors.
Procedure: SKRC52 cells were grown to 80% confluence and detached with Trypsin-EDTA 0.05% (Invitrogen). Cells were washed with PBS pH 7.4 once, counted and resuspended in PBS to a final concentration of 6.7×10^7 cells mL^−1. Athymic balb/c nu/nu mice, 8-10 weeks of age (Charles River) were anesthetized with isofluorane and aliquots of 1×10^7 cells (150 μL of suspension) injected subcutaneously into their lower back.
Food and water was given ad libitum during that period.
Mice were subsequently sacrificed by cervical dislocation.
Another data set can be described thus: in vivo. Conditions: balb/c nu/nu, mouse, iv.
Data set [3] has as its system subcutaneous SKRC52 tumors. Conditions: mouse, in vivo.
Procedure: (§1) After 1 h, 2 h or 4 h animals were sacrificed, organs extracted as above, cut into small pieces, weighed and suspended in 1:1 w/v organ homogenization buffer containing EDTA (40 mM), proteinase K (6 mg/ml), Triton X-100 (1.6 μl/ml) and trace amounts of DNase 1 in PBS pH 7.4 (100 μL per 100 mg of tissue). The suspension was homogenized on a TissueLyser organ homogenizer (Quiagen, 25 Hz, 10 min), incubated for 2 h at room temperature and 100 μL of the homogenate transferred to a black 96-well plate. […] Fluorescent images of plates were recorded on an IVIS Spectrum imaging system (Xenogen, parameters as above) and analyzed using Living Image software version 4.3.1 (Caliper Life Science) using the built-in region of interest (ROI) tools. Dye concentrations in organ samples in % of injected dose per gram of tissue (% ID g^−1) were inferred from fluorescence intensities originating from the corresponding well by comparison with the standard dilution series.
In data set [4] the test system is CAIX expressing SKRC52 cells. The experiment in a line: Ligand binding analysis by flow cytometry, SKRC52. The data set is classed as cell-based, human. Conditions: 30 nM dye conjugate, 1 h at 0° C., washed. The method, then: Cells were detached from culture plates using a 50 mM EDTA solution in phosphate buffered saline (PBS) pH 7.4, counted and suspended to a final concentration of 1.5×10^6 cells mL^−1 in a 1% v/v solution of FCS in PBS pH 7.4. Aliquots of 3×10^5 cells (200 μL) were spun down and resuspended in solutions of IRDye750 (Licor) labeled ligands (30 nM) in a 1% v/v solution of FCS in PBS pH 7.4 (200 μL) and incubated on ice for 1 h. Cells were washed once with 200 μL 1% v/v solution of FCS in PBS pH 7.4 (200 μL), spun down, resuspended in 1% v/v solution of FCS in PBS pH 7.4 (300 μL) and analyzed on a FACS Canto flow cytometer (BD Bioscience). FlowJo Version 8.7 (Treestar) was used for data analysis and visualization. Results were as follows: • (1) Flow cytometry analysis of binding of ligand-IRDye750 conjugates 1c-6c (FIG. 1) to CAIX expressing SKRC52 cells.
Flow cytometry was performed as described above with monovalent and bivalent near infrared dye conjugates B3 and B4 and negative control conjugates lacking the ligand on CAIX-positive SKRC52 cells and CAIX-negative HEK cells^5.

The target in another data set is T1, CAIX (Homo sapiens, UniProt Q16790).
T1 construct: His6; made in house
Kind of data set: Affinity determination of CAIX ligands by fluorescence polarization. The data set is classed as binding. Conditions: PBS pH 7.4, 22° C., 1 h; read-out: Kd by fluorescence polarization in solution. The protocol: Fluorescein labelled ligands (5 nM diluted with PBS from DMSO stocks, final DMSO content adjusted to 0.001%) were incubated at 22° C. for 1 h in a black 384-well plate (Greiner, non-binding) in PBS (pH 7.4) with increasing concentrations of CAIX to a final volume of 60 μl. The fluorescence anisotropy was measured on a Spectra Max Paradigm multimode plate reader (Molecular Devices). Experiments were performed in triplicate and the mean anisotropy values fitted to the following equation using KaleidaGraph 4.1.3 (Synergy Software),
[formula] where A is the anisotropy, [P]0 the total protein concentration, [L]0 the total concentration of the fluorescently labelled ligand and KD the dissociation constant.
Background: Polarisation of emitted light reports the rotation of a fluorescent probe.

Where two headings read alike, the source gives them in different places.

Procedure for in vivo: as §1

The term half-life denotes the time needed for the level to fall by half in the phase considered. `CC1(C)C(/C=C/C2=C(c3ccc(CCCCC(=O)NCCOCCOCCNC(=O)CCC(=O)Nc4nnc(S(N)(=O)=O)s4)cc3)C(=C/C=C3/N(CCCCS(=O)(=O)O)c4ccc(S(=O)(=O)[O-])cc4C3(C)C)/CCC2)=[N+](CCCCS(=O)(=O)O)c2ccc(S(=O)(=O)O)cc21` [Compound 1c, N1-(2-(2-(2-aminoethoxy)ethoxy)ethyl)-N4-(5-sulfamoyl-1,3,4-thiadiazol-2-yl)succinamide IRDye750 conjugate]: the “internalization with extended incubation time” value in data set [1] (30 nM at 37° C., 2 h and 4 h versus 1 h) is “did not see a markedly increased signal”. Also, in data set [1] (30 nM, 0.2% w/v NaN3, same with excess AAZ or at 0° C.), the “internalization under conditions inhibiting uptake” value was “fluorescent signal was shifted to baseline”. Besides, the “internalization: fluorescence after trypsin detachment” value in data set [1] (30 nM, 1 h at 37° C.) was “higher fluorescence intensity than cells treated with non-binding conjugate 6c or untreated cells”. In addition, the “tumor visibility by near infrared imaging” value in data set [2] (1 nmol intravenous, 1 h) was “the tumor could clearly be seen against background”. The “tumor targeting by near infrared imaging” value in data set [2] (3 nmol intravenous, 1-12 h) was “gave good tumor to background contrast”. In the data set “in vivo”, this compound showed a half-life of about 1 h. Besides, in data set [3], the “tumor to heart ratio” value is 27.6:1; the tumor-to-blood ratio was 79.2:1; the “tumor-to-organ ratio, kidneys” value is 1.4:1; the “tumor-to-organ ratio, liver” value was 0.2:1. The tumor-to-blood ratio in data set [3] (iv) is 13.8:1. Also, in data set [4], the “binding to SKRC52 cells (fluorescence shift)” value is listed as “binds strongly enough to result in a strong fluorescence shift after washing of cells”.
The term Kd denotes the constant that tells how readily two partners part at equilibrium. `CC(CCC(=O)N[C@@H](CC(=O)N[C@@H](CC(=O)N[C@@H](CCCCn1cc(CCCC(=O)Nc2nnc(S(N)(=O)=O)s2)nn1)C(=O)NCCOCCOCCN)C(=O)O)C(=O)O)(c1ccc(O)cc1)c1ccc(O)cc1` [Compound C5a, N-[4,4-bis(4-hydroxyphenyl)pentanoyl]-β-aspartyl-β-aspartyl-N-{2-[2-(2-aminoethoxy)ethoxy]ethyl}-6-(4-{4-oxo-4-[(5-sulfamoyl-1,3,4-thiadiazol-2-yl)amino]butyl}-1H-1,2,3-triazol-1-yl)-L-norleucinamide]: the Kd at CAIX was found to be 0.2 ± 0.1 nM.
